In paper PMC9381478, “A context-dependent and disordered ubiquitin-binding motif” (Cellular and Molecular Life Sciences: CMLS, 2022):
Entries after “also recorded” stand apart in the source; their conditions may differ.

Legend:
ubiquitin [1] = molecular target: T1, ubiquitin (Schizosaccharomyces pombe, UniProt P0CH06); assay: Membrane-bound peptide array probed with Cy5-labeled ubiquitin; assay type: binding, S. pombe; conditions: 15-mer peptides on cellulose membrane, 0.4 µM Cy5-labeled ubiquitin, 1 h, RT, fluorescence at 650 nm, mean of two membranes; compared with Pep1
T1 construct: plasmid coding for S. pombe ubiquitin with an N-terminal 6xhistidine-tag, TEV-cleavage site as well as an N-terminal free cysteine; made in house; host or cells: E. coli BL21(DE3)
Description: Two identical membrane-bound peptide arrays, each with 50 peptide spots, were purchased from JPT peptide technologies as PepSpots™ (Germany). Here, peptides are covalently attached to a cellulose membrane with the C-terminal amino acid through a β-alanine. Each peptide spot contained approximately 2.44·10^15 molecules or 4 nmol peptides. For detection of binding, ubiquitin was labeled at the N-terminal free cysteine with Cy5 maleimide fluorophore (GE Healthcare), which has an emission maximum at 666 nm. Ubiquitin or His6-SUMO (50 µL–70 µM) was reduced with 10 times molar excess tris(2-carboxyethyl)phosphine (TCEP), and incubated with one aliquot of 10 µL, 3 mM Cy5 in dimethyl sulfoxide (DMSO) at RT for 2 h. Excess Cy5 was neutralized with 10 µL 14.3 mM βME, and the mixture was separated on a gravity flow Sepharose column (from NanoTemper Monolith Protein Labeling Kit Red-NHS (Amine Reactive)). The column was equilibrated with tris buffered saline with Tween 20 (TBS-T) buffer (20 mM Tris, 150 mM NaCl, 1 mM EDTA, 500 µL/L Tween 20, pH 7). The ubiquitin/SUMO-Cy5 mixture (73.5 µL) was loaded on the column, followed by 426.5 µL TBS-T buffer. To evaluate the concentration of ubiquitin and Cy5, the absorbance at 280 nm and 650 nm of each fraction was measured on a ND-1000 NanoDrop spectrophotometer (Thermo Fischer Scientific). Fractions where the absorbance peaked at both wavelengths simultaneously were pooled and used for the peptide array.
All wash and incubation steps were performed at RT on a rocking table. The membranes were first washed with 25 mL TBS-T buffer two times for 5 min. Next, the membranes were blocked with blocking buffer (TBS-T with 5% (w/v) skim milk powder) for 1 h and washed for 10 min in TBS-T buffer and the background signal at 650 nm acquired using a Chemidoc imager (Bio-Rad). […] After the incubation, the membranes were washed with TBS-T buffer for five times 5 min and the fluorescence signal at 650 nm acquired on the Chemidoc imager. The fluorescent signal was quantified using the image processing software ImageJ. The intensity from each peptide spot was read using the Microarray Profile plugin. The intensities acquired before adding ubiquitin were subtracted from the signals acquired after. Finally, the mean between the corresponding values from the two membranes was calculated and reported as the signal intensity for each peptide.

ubiquitin [2] = molecular target: T1, ubiquitin; assay: NMR titration of 15N-ubiquitin (1H-15N HSQC chemical shift perturbations); assay type: binding, S. pombe; conditions: for Kd: peptide or protein titrated into 100 µM 15N-ubiquitin, 20 mM NaH2PO4, 150 mM NaCl, 5 mM TCEP, pH 7.5, global fit of CSPs to one-site-binding model
Description: For interaction of the peptides with ^15N-ubiquitin, the lyophilized peptides were dissolved in MilliQ water and pH adjusted to 7.5. […] For the titrations of ubiquitin with each peptide, except the WT Dss1 peptide, 100 µM ubiquitin in NMR buffer was measured as one end point, and the 1 mM peptide and 100 µM ubiquitin as the other. Then, the peptide sample was titrated into the ubiquitin sample with titration points at 0, 50, 150, 300, 400, 500 and 1000 µM peptide. […] NMR samples were centrifuged 13.000×g for 5 min and transferred to either single-use 5 mm NMR tubes (Bruker) or 3 mm (Shigemi). To prepare NMR samples of ^15 N-labeled ubiquitin with full-length Dss1 and variants, lyophilized proteins were dissolved directly in the NMR buffer. The variants were each dissolved in 510 µL NMR buffer with 100 µM ubiquitin. The concentration of Dss1 in the NMR sample was determined by measuring the absorbance at 280 nm on a ND-1000 NanoDrop spectrophotometer, calibrated with the NMR buffer with 100 µM ubiquitin. The concentration of Dss1 varied between variants, depending on the purification yield. For all titrations, seven points of varying Dss1 concentration were recorded. To prepare NMR samples of ^15N-labeled ubiquitin with Spd1, Spd1 was buffer exchanged to MilliQ using a 3 kDa cut-off Amicon Ultra-0.5 ml centrifugal filter (Merk Millipore), lyophilized and resuspended in NMR buffer with 100 µM ubiquitin. […] For experiments with ubiquitin, 200 µL 1 mM ubiquitin was buffer exchanged to MilliQ water using a 3 kDa cut-off Amicon Ultra-0.5 ml centrifugal filter (Merk Millipore), lyophilized, and subsequently resuspended in 100 µL NMR buffer with 1 mM Dss1 for a final ubiquitin concentration of 2 mM and 1 mM, respectively. All samples were transferred to 3 mm (Shigemi) NMR tubes.
All NMR spectra were recorded on Bruker Avance III HD 600 MHz spectrometer with a Bruker proton-optimized quadruple resonance NMR ‘inverse’ (QCI) cryoprobe, a Bruker Avance III HD 750 MHz spectrometer with a Bruker proton-optimized triple resonance NMR ‘inverse’ (TCI) cryoprobe and a Bruker Avance Neo 800 MHz spectrometer with a Bruker carbon/nitrogen-optimized triple-resonance NMR 'observe' (TXO) cryoprobe. […] All spectra were zero-filled, apodized using cosine bells in all dimensions, Fourier transformed, and the zero-order phase was corrected manually using either nmrDraw, a component of NmrPipe or qMDD if spectra were recorded using non-linear-sampling (NLS). All spectra were analysed using the Analysis software.
The CSPs were fitted to a one-site-binding model using global fit, and the Kd-values are extracted using Eq. 2.2 Δδobs=Δδmax∙Pt+Lt+Kd-Pt+Lt+Kd^2-4Pt∙Lt^1/2/2∙Pt.
Peaks giving rise to large uncertainties in the fit, either due to weak signals or overlap, were removed after a first iteration of fitting, and the fit repeated on the remaining dataset.

ubiquitin [3] = conditions: read-out: Kd of known UIM sequence for ubiquitin; cited from earlier work
SUMO [4] = assay: Membrane-bound peptide array probed with Cy5-labeled SUMO; assay type: binding; conditions: 15-mer peptides on cellulose membrane, 0.4 µM Cy5-labeled His6-SUMO, 1 h, RT, fluorescence at 650 nm, mean of two membranes
Description: Two identical membrane-bound peptide arrays, each with 50 peptide spots, were purchased from JPT peptide technologies as PepSpots™ (Germany). Here, peptides are covalently attached to a cellulose membrane with the C-terminal amino acid through a β-alanine. Each peptide spot contained approximately 2.44·10^15 molecules or 4 nmol peptides. For detection of binding, ubiquitin was labeled at the N-terminal free cysteine with Cy5 maleimide fluorophore (GE Healthcare), which has an emission maximum at 666 nm. […] To evaluate the concentration of ubiquitin and Cy5, the absorbance at 280 nm and 650 nm of each fraction was measured on a ND-1000 NanoDrop spectrophotometer (Thermo Fischer Scientific). Fractions where the absorbance peaked at both wavelengths simultaneously were pooled and used for the peptide array.
All wash and incubation steps were performed at RT on a rocking table. […] After the incubation, the membranes were washed with TBS-T buffer for five times 5 min and the fluorescence signal at 650 nm acquired on the Chemidoc imager. The fluorescent signal was quantified using the image processing software ImageJ. The intensity from each peptide spot was read using the Microarray Profile plugin. […] Finally, the mean between the corresponding values from the two membranes was calculated and reported as the signal intensity for each peptide.

SUMO [5] = conditions: read-out: SUMO affinity of known SUMO interacting motif; cited from earlier work
Description: To investigate the binding specificity, we tested the peptides for interaction with the structurally related small ubiquitin-like modifier (SUMO), a ubiquitin-like protein also used as posttranslational modification, but involved in different signaling pathways. SUMO binds to extended stretches of residues with an interaction motif consisting of φφXφ, often followed by negatively charged residues or phosphorylation sites, where φ represents hydrophobic residues. Thus, known SUMO binding features partly overlap the features extracted above. Fluorescently labeled SUMO was added to ...

T1 sequence (P0CH06 1-76 limits assumed): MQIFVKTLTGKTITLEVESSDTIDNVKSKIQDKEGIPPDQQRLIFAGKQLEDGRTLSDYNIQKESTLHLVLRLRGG

Ac-DDTLWWENNWWDDED-NH2 [Pep42]
emission intensity of bound Cy5-ubiquitin (apparent affinity) (ubiquitin [1]): increased emission intensity; also recorded: highest emission intensity | Kd (ubiquitin [2]): 1200 ± 90 µM

Ac-DDTLWWEDDWWDDED-NH2 [PepDWD]
Kd (ubiquitin [2]): 600 ± 30 µM

GDDTLWEVNWDDEDI [Pep38, 15-mer variant of Dss1 UBS1, peptide array]
emission intensity of bound Cy5-ubiquitin (apparent affinity) (ubiquitin [1]): enhanced emission; also recorded: increased ubiquitin affinity

GDDTLWENNWWDDED [Pep41, 15-mer variant of Dss1 UBS1, peptide array]
emission intensity of bound Cy5-ubiquitin (apparent affinity) (ubiquitin [1]): increased emission intensity

GDDTDWENNWDDEDI [Pep8, 15-mer variant of Dss1 UBS1, peptide array]
emission intensity of bound Cy5-ubiquitin (apparent affinity) (ubiquitin [1]): increased emission intensity

GDDTWWENNWDDEDI [Pep11, 15-mer variant of Dss1 UBS1, peptide array]
emission intensity of bound Cy5-ubiquitin (apparent affinity) (ubiquitin [1]): increased emission intensity

EDPDLKAAIQESLRE [Pep45, reference compound]
Kd (ubiquitin [3]): 20 µM | emission intensity of bound Cy5-ubiquitin (apparent affinity) (ubiquitin [1]): only weak emission intensities

GDDTLWPNPWDDEDI [Pep37, 15-mer variant of Dss1 UBS1, peptide array]
emission intensity of bound Cy5-ubiquitin (apparent affinity) (ubiquitin [1]): no or negative effects on binding

GDDTLWETNWDDEDI [Pep39, 15-mer variant of Dss1 UBS1, peptide array]
emission intensity of bound Cy5-ubiquitin (apparent affinity) (ubiquitin [1]): enhanced emission; also recorded: increased ubiquitin affinity

GDDTEWENNWDDEDI [Pep9, 15-mer variant of Dss1 UBS1, peptide array]
emission intensity of bound Cy5-ubiquitin (apparent affinity) (ubiquitin [1]): increased emission intensity

Ac-DLWEDDWDLWEDDWD-NH2 [PepDMD]
Kd (ubiquitin [2]): 480 ± 40 µM

GEAEERVVVISSSED [Pep48]
emission intensity of bound Cy5-SUMO (apparent affinity) (SUMO [4]): lower-than-average affinity | Kd (SUMO [5]): ~100 µM

Ac-GDDTLWENNWDDEDI-NH2 [Pep1]
chemical shift perturbations (CSPs) induced in the HSQC spectrum of ubiquitin (ubiquitin [2]; 1 mM 15-mer peptide added to 100 µM 15N-ubiquitin (120 µM for POLIIBP and ZFB)): much larger CSPs | Kd (ubiquitin [2]): 3000 ± 200 µM

GDDTLWEDDWDDEDI [Pep20, 15-mer variant of Dss1 UBS1, peptide array]
emission intensity of bound Cy5-ubiquitin (apparent affinity) (ubiquitin [1]): increased emission intensity

GDDDLWENNWDDEDI [Pep25, 15-mer variant of Dss1 UBS1, peptide array]
emission intensity of bound Cy5-ubiquitin (apparent affinity) (ubiquitin [1]): increased emission intensity

GDDTFWENNWDDEDI [Pep5, 15-mer variant of Dss1 UBS1, peptide array]
emission intensity of bound Cy5-ubiquitin (apparent affinity) (ubiquitin [1]): increased emission intensity

LKVDVIDLTIESSSD [Pep47]
emission intensity of bound Cy5-SUMO (apparent affinity) (SUMO [4]): high apparent affinity | Kd (SUMO [5]): 1 µM

GDDTLWAAAWDDEDI [Pep36, 15-mer variant of Dss1 UBS1, peptide array]
emission intensity of bound Cy5-ubiquitin (apparent affinity) (ubiquitin [1]): reduced binding

Ac-DLWENNWDLWENNWD-NH2 [Pep43]
emission intensity of bound Cy5-ubiquitin (apparent affinity) (ubiquitin [1]): highest emission intensity | Kd (ubiquitin [2]): 1300 ± 120 µM

IQEDWELAERLQREE [Pep46, reference compound]
Kd (ubiquitin [3]): 100 µM | emission intensity of bound Cy5-ubiquitin (apparent affinity) (ubiquitin [1]): only weak emission intensities

GDDTLWEPNWDDEDI [Pep40, 15-mer variant of Dss1 UBS1, peptide array]
emission intensity of bound Cy5-ubiquitin (apparent affinity) (ubiquitin [1]): enhanced emission
